Consider one compound from patent US20230372350A1, “ASTROCYTIC TRPA1 CHANNEL INHIBITION AS A NOVEL NEUROPROTECTIVE THERAPEUTIC TARGET IN THE PRODROMAL PHASES OF ALZHEIMER'S DISEASE” (priority 2020, published 2023).

Assay [1] has as its system astrocytes of the hippocampus (stratum radiatum), TRPA1 channel. As to the kind of experiment: Acute application on acute hippocampal slices: astrocyte calcium imaging. The following applies: 40 μM, APP/PS1-21 mice 1-month old. It counts as cell-based, mouse. Here is the method:
Coronal sections of the hippocampus (thickness 300 μm) were prepared from APP/PS1-21 transgenic mice (1 month and 3 months old) or from WT mice from the same litter. The mice were sacrificed by decerebration and decapitation. The brain was quickly removed and sectioned in ice-cold ACSF containing (in mM) : 2.5 KCl, 7 MgCl2, 0.5 CaCl2, 1.2 NaHPO4, 25 NaHCO3, 11D-glucose and 234 sucrose bubbled with 95% of O2 and 5% of CO2 with a VT1200S vibratome (Leica, Germany). The sections containing the hippocampus were placed in ACSF containing (in mM) : 126 NaCl, 2.5 KCl, 1.2 MgCl2, 2.5 CaCl2, 1.2 NaH2PO4 bubbled with 95% of O2 and 5% of CO2 and supplemented with 1 mM of sodium pyruvate at room temperature for a recovery period.
300 μm coronal sections were transferred to a chamber allowing constant perfusion with ACSF at room temperature, bubbling with 95% of O2 and 5% of CO2 on the upright microscope tray (Eclipse E600 FN, Nikon, France) equipped with a 60× (NA 1.0) water immersion objective and infrared interference contrast optical systems with a CCD camera (Optronis VX45, Germany). […] The signals were amplified by Axopatch 200B, sampled by a Digidata 1440A interface and recorded by the pClamp8 software (Molecular Devices, USA). […] The input resistance was calculated by measuring the current in response to a 10 mV pulse of 80 ms duration near the end of the voltage command.

In assay [2] the test system is CA1 pyramidal neurons. Put plainly: Acute in vitro application on hippocampal slices: CA1 neuronal activity. It counts as cell-based, mouse. To be noted: 1-month old APP/PS1-21 animals. As for the experimental part: Coronal sections of the hippocampus (thickness 300 μm) were prepared from APP/PS1-21 transgenic mice (1 month and 3 months old) or from WT mice from the same litter. The mice were sacrificed by decerebration and decapitation. The brain was quickly removed and sectioned in ice-cold ACSF containing (in mM) : 2.5 KCl, 7 MgCl2, 0.5 CaCl2, 1.2 NaHPO4, 25 NaHCO3, 11D-glucose and 234 sucrose bubbled with 95% of O2 and 5% of CO2 with a V[…] vibratome (Leica, Germany). The sections containing the hippocampus were placed in ACSF containing (in mM) : 126 NaCl, 2.5 KCl, 1.2 MgCl2, 2.5 CaCl2, 1.2 NaH2PO4 bubbled with 95% of O2 and 5% of CO2 and supplemented with 1 mM of sodium pyruvate at room temperature for a recovery period. Whole-cell recordings were performed on visually identified CA1 pyramidal neuron somas. […] The sEPSCs and their kinetics were analyzed, after a stabilization period of 10 minutes, 5 minutes from the recordings. Access resistance was constantly monitored and recordings were excluded from this study when this parameter varied more than 20% during the experiment. Recordings were analyzed using the Clampfit module of pClamp8 software (Molecular Devices, USA) with a single one at 20 pA to exclude miniature sEPSCs.

The subject of assay [3] is stratum radiatum synapses of APP/PS1-21 and WT mice. Put plainly: Chronic intraperitoneal treatment: electron microscopy of astrocyte coverage of synapses. It counts as in vivo, mouse. To be noted: 3-months old, i.p. treatment. As for the experimental part: This solution is then diluted to 1 μg/μl in an isotonic solution containing 1% Pluronic F-127 and 0.9% NaCl. The animals are injected daily intraperitoneally at a dose of 5 mg/kg of body mass. Sterile 0.5 ml BD MicroFine syringes with no dead volume, equipped with a 30G (0.3 mm) needle are used for the injections. The injection is started from the 14th postnatal day (appearance of the expression of the Thy1gene promoter in the hippocampus, triggering the overexpression of Aβ in the APP/PS1-21 murine model) Hippocampi were dissected and fixed with 1.7% of glutaraldehyde in 0.1 M phosphate buffer at pH 7.4 for 48 hours at room temperature. The CA1 region was dissected under a binocular magnifying glass and fixed again for 2 hours in the same solution. Samples were then washed with buffer and post-fixed with 1% of osmium tetroxide and 0.1M phosphate buffer with pH 7.2 for 1 hour at 4° C. After thorough washing with water, the cells were then stained with 1% of uranil acetate with pH 4 in water for 1 hour at 4° C. before being dehydrated by successive alcohol baths (30%-60%-90%-100%-100%-100%) and incubated with a 1:1 epon/ethanol at 100% mixture for 1 hour and several baths of fresh epoxy resin (Sigma-Aldrich, France) for 3 hours. Finally, the samples were included in a capsule filled with resin which was allowed to polymerize for 72 h at 60° C. […]

Assay [4] relates to rodent forms of TRPA1. The following applies: McNamara et al. 2007, Eid et al. 2008, read-out: CI50 (the source's name); cited from earlier work.
For assay [5], the system named is models of neuropathic and inflammatory pain. The following applies: rats, oral administration 100 mg/kg; Eid et al. 2008; cited from earlier work.

Molecules are shown by their SMILES. “Also recorded” adds a separate entry of the source.

Take `CC(C)c1ccc(NC(=O)Cn2cnc3c2c(=O)n(C)c(=O)n3C)cc1` [HC030031, 2-(1,3-Dimethyl-2,6-dioxo-1,2,3,6-tetrahydro-7H-purin-7-yl)-N-(4-isopropylphenyl)acetamide]: the astrocyte calcium hyperactivity result in assay [1] is listed as “fully restored; also recorded: inhibited”. The “neuronal hyperactivity (CA1)” value in assay [2] is reported as “fully restored”. For the same compound, in assay [3] (APP/PS1 mice), the “synapses enveloped (astrocyte coverage of stratum radiatum synapses)” value is 64.0±1.5%. In assay [3] (WT mice), the “synapses enveloped (astrocyte coating)” value was found to be 62.7±2.7%. Also, in assay [4], the IC50 was 7.6 µM. Further, the analgesic effect result in assay [5] is “significant analgesic effect”.
